In BindingDB's records for doi:10.1021/jm00016a009 (Purdue University, 1995):

Assay: Effective concentration as Adenylate cyclase activity was measured in rat homogenate

| Compound | EC50 |
| --- | --- |
| Cc1cccc2c1CN[C@@H]1CCc3cc(O)c(O)cc3[C@@H]21 [(6aR,12bS)-4-Methyl-5,6,6a,7,8,12b-hexahydro-benzo[a]phenanthridine-10,11-diol] | 151 nM |
| Oc1cc2c(cc1O)[C@H]1c3cc(-c4ccccc4)ccc3CN[C@@H]1CC2 [(6aR,12bS)-2-Phenyl-5,6,6a,7,8,12b-hexahydro-benzo[a]phenanthridine-10,11-diol] | 10 nM |
| CCc1ccc2c(c1)[C@@H]1c3cc(O)c(O)cc3CC[C@H]1NC2 [(6aR,12bS)-2-Ethyl-5,6,6a,7,8,12b-hexahydro-benzo[a]phenanthridine-10,11-diol] | 610 nM |
| Oc1ccc2c(c1)CN[C@@H]1CCc3cc(O)c(O)cc3[C@@H]21 [(6aR,12bS)-5,6,6a,7,8,12b-Hexahydro-benzo[a]phenanthridine-3,10,11-triol] | 130 nM |
| Oc1ccc2c(c1)[C@@H]1c3cc(O)c(O)cc3CC[C@H]1NC2 [(6aR,12bS)-5,6,6a,7,8,12b-Hexahydro-benzo[a]phenanthridine-2,10,11-triol] | 148 nM |
| Cc1ccc2c(c1)CN[C@@H]1CCc3cc(O)c(O)cc3[C@@H]21 [(6aR,12bS)-3-Methyl-5,6,6a,7,8,12b-hexahydro-benzo[a]phenanthridine-10,11-diol] | 134 nM |
| CCCN1Cc2cc(C)ccc2[C@@H]2c3cc(O)c(O)cc3CC[C@H]21 [(6aR,12bS)-3-Methyl-6-propyl-5,6,6a,7,8,12b-hexahydro-benzo[a]phenanthridine-10,11-diol] | 10 nM |
